In ChEMBL document CHEMBL1287729, “Novel and efficient synthesis and antifungal evaluation of 2,3-functionalized cholestane and androstane derivatives” (2010):
In brackets after ≈: the same amount, converted by molar mass. Values belong to the compound of their own block, whether it stands above or below them. Activity calls are given as the source filed them. The rule behind the calls is not given here.

What was measured:
[1] = system: Nakaseomyces glabratus; assay: Antifungal activity against Candida glabrata ATCC 48435 after 48 hrs by broth dilution method; type: functional; settings: ATCC 48435, 48 h
[2] = system: Aspergillus fumigatus; assay: Antifungal activity against Aspergillus fumigatus ATCC 16424 after 48 hrs by broth dilution method; type: functional; settings: ATCC 16424, 48 h
[3] = system: Aspergillus fumigatus; assay: Antifungal activity against Aspergillus fumigatus ATCC 16424 at 128-0.01 ug/ml by spectroscopy analysis; type: functional, organism-based
[4] = system: Candida albicans; assay: Antifungal activity against Candida albicans ATCC 10231 at 128-0.01 ug/ml spectroscopy analysis; type: functional, organism-based
[5] = system: Nakaseomyces glabratus; assay: Antifungal activity against Candida glabrata ATCC 48435 at 128-0.01ug/ml spectroscopy analysis; type: functional, organism-based
[6] = system: Cryptococcus neoformans; assay: Antifungal activity against Cryptococcus neoformans ATCC 36556 at128-0.01 ug/ml spectroscopy analysis; type: functional, organism-based
[7] = system: Candida albicans; assay: Antifungal activity against Candida albicans ATCC 10231 after 48 hrs by broth dilution method; type: functional; settings: ATCC 10231, 48 h
[8] = system: Cryptococcus neoformans; assay: Antifungal activity against Cryptococcus neoformans ATCC 36556 after 48 hrs by broth dilution method; type: functional; settings: ATCC 36556, 48 h

Structure (SMILES): CC(C)CCC[C@@H](C)[C@H]1CC[C@H]2[C@@H]3CC[C@H]4C[C@@H](OC(=O)CCC(=O)O)[C@H](OC(=O)CCC(=O)O)C[C@]4(C)[C@H]3CC[C@]12C
MIC [1]: 32 µg/mL (≈ 52.9 µM)
MIC ([2]; read-out: MIC): 8 µg/mL (≈ 13.2 µM)
growth inhibition (GI) [3]: Active

Structure (SMILES): C[C@@]12CCC[C@H]1[C@@H]1CC[C@H]3C[C@@H](O)CC[C@]3(C)[C@H]1CC2
growth inhibition (GI) [4]: Active
growth inhibition (GI) [5]: Active
growth inhibition (GI) [6]: Active
growth inhibition (GI) [3]: Active

Structure (SMILES): CC(C)CCC[C@@H](C)[C@H]1CC[C@H]2[C@@H]3CC[C@H]4C[C@@H](O)CC[C@]4(C)[C@H]3CC[C@]12C
growth inhibition (GI) [4]: Active
growth inhibition (GI) [5]: Active
growth inhibition (GI) [6]: Active
growth inhibition (GI) [3]: Active

Structure (SMILES): CC(=O)O[C@@H]1C[C@@]2(C)[C@@H](CC[C@H]3[C@@H]4CCC[C@@]4(C)CC[C@@H]32)CC1=O
MIC [7]: 0.125 µg/mL (≈ 0.376 µM)
MIC ([2]; read-out: MIC): 1 µg/mL (≈ 3.01 µM)

Structure (SMILES): CC(=O)O[C@]12C[C@@H]3CC[C@H]4[C@@H]5CCC[C@@]5(C)CC[C@@H]4[C@@]3(C)C[C@H]1O2
MIC [7]: 4 µg/mL (≈ 12 µM)

Structure (SMILES): CC(=O)O[C@@H]1C[C@@]2(C)[C@@H](CC[C@@H]3[C@@H]2CC[C@]2(C)[C@@H]([C@H](C)CCCC(C)C)CC[C@@H]32)C[C@H]1OC(=O)CCC(=O)O
MIC [8]: 8 µg/mL (≈ 14.6 µM)
MIC ([2]; read-out: MIC): 2 µg/mL (≈ 3.66 µM)

Second part, led by results:

MIC [2]: 128 µg/mL (≈ 288 µM)
Structure (SMILES): CC(=O)O[C@@H]1C[C@@]2(C)[C@@H](CC[C@@H]3[C@@H]2CC[C@]2(C)[C@@H]([C@H](C)CCCC(C)C)CC[C@@H]32)CC1=O
growth inhibition (GI) [4]: Active

MIC [8]: 32 µg/mL (≈ 79.1 µM)
Structure (SMILES): CC(C)CCC[C@@H](C)[C@H]1CC[C@H]2[C@@H]3CC[C@H]4C[C@@H](O)[C@H](O)C[C@]4(C)[C@H]3CC[C@]12C

MIC [2]: 8 µg/mL (≈ 18 µM)
Structure (SMILES): CC(=O)O[C@]12C[C@@H]3CC[C@@H]4[C@H](CC[C@]5(C)[C@@H]([C@H](C)CCCC(C)C)CC[C@@H]45)[C@@]3(C)C[C@H]1O2

MIC [8]: 4 µg/mL (≈ 8.95 µM)
Structure (SMILES): CC(=O)O[C@@H]1C[C@@]2(C)[C@@H](CC[C@@H]3[C@@H]2CC[C@]2(C)[C@@H]([C@H](C)CCCC(C)C)CC[C@@H]32)C[C@H]1O
